Measured values taken from PMC4607407 (PLoS ONE, 2015).
Where two headings read alike, the source gives them in different places. Values belong to the compound of their own block, whether it stands above or below them.

Tests used:
[1] = target: T1, AKT1-E17K (Homo sapiens, UniProt P31749, E17K); assay: AKT1 plasma membrane translocation in NIH 3T3 cells; format: cell-based; settings: NIH 3T3, 1 μM for 2 hours, PDGF-BB 50 ng/ml 10 minutes
T1 construct: host or cells: NIH 3T3 cells
Method: (§1) Cells (15,000 cells per chamber) were plated into a Nunc Lab-Tek Chambered Coverglass System (Thermo Fisher Scientific, Waltham, MA) containing full media without antibiotics. […] Next, the cells were stimulated with PDGF (PeproTech, Rocky Hill, NJ) at 50 ng/ml for 10 minutes. Cells were washed with PBS and then fixed with 200 μl paraformaldehyde fixation buffer (3% paraformaldehyde, 2% sucrose in PBS, pre-warmed at […]). After washing with PBS, cells were blocked and permeabolized with 0.1% TX-100 + 1% BSA in PBS for 15 minutes at room temperature. Next, 200 μl DAPI (1 μg/ml in PBS) was used to counterstain the nuclei at room temperature in darkness for 15 minutes. Samples were then rinsed with cold PBS and stored at 4°C until imaging. Images were captured using an Olympus inverted epi-fluorescent microscope (Olympus Corporation of America, Center Valley, PA) with a 60x oil immersion objective.

[2] = target: T2, AKT1-WT (Homo sapiens, UniProt P31749); assay: as above; format: cell-based; settings: NIH 3T3, 1 μM for 2 hours, PDGF-BB 50 ng/ml 10 minutes
T2 construct: host or cells: NIH 3T3 cells
Method: as §1

[3] = tested on: KU-19-19; assay: Cell proliferation MTS assay; format: cell-based; settings: Homo sapiens, read-out: IC50 KU-19-19 (AKT1-E17K, NrasQ61R)
Method: (§2) IC50 was calculated using Activity Base. Data shown as mean ± standard deviation. […] (DOCX) Click here for additional data file.
(§3) Treated cells were incubated at 37°C for 72 hours in 5% CO2.
(§4) The GI50 was then determined using Microsoft ExcelFit software in Activity Base.

[4] = tested on: MDA-MB-453; assay: Cell proliferation MTS assay; format: cell-based; settings: Homo sapiens, read-out: IC50 MDA-MB-453 (PIK3CAH1047R)
Method: as §2, §3, §4

[5] = tested on: NCI-H1650; assay: Cell proliferation MTS assay; format: cell-based; settings: Homo sapiens, read-out: IC50 NCI-H1650 (PTEN null)
Method: as §2, §3, §4

[6] = tested on: melanoma PDX tumor model (ST052C); assay: Vemurafenib-resistant melanoma PDX combination study; format: in vivo, mice; settings: ARQ 092 100 mg/kg 5 days on 2 days off; trametinib 3 mg/kg; p<0.05
[7] = tested on: KPL-4 tumors; assay: KPL-4 xenograft combination study; format: in vivo, mice; settings: vs untreated control; ARQ 092 60 mg/kg oral daily 12 days; trastuzumab 15 mg/kg iv every three days; paclitaxel 15 mg/kg iv every 6 days

T1 sequence (P31749 whole entry E17K): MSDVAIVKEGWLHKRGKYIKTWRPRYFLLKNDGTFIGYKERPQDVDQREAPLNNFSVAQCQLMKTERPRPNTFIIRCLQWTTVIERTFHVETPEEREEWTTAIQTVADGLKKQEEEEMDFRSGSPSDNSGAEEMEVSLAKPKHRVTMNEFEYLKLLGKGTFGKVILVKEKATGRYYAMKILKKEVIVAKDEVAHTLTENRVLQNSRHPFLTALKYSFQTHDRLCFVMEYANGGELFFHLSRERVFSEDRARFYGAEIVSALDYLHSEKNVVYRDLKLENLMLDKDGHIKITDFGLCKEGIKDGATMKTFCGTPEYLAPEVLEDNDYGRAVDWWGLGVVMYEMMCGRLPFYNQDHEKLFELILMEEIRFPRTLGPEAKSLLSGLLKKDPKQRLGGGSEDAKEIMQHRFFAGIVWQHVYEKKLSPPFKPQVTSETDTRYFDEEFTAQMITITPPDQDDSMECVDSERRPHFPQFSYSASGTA
T2 sequence (P31749 whole entry): as the sequence (P31749 whole entry E17K) above, with K17E counted along it

SMILES: CC(C)NC[C@@H](C(=O)N1CCN(c2ncnc3c2[C@H](C)C[C@H]3O)CC1)c1ccc(Cl)cc1 [GDC-0068, reference compound]
- plasma membrane translocation of AKT1-E17K [1]: stimulated translocation
- plasma membrane translocation of AKT1-WT [2]: stimulated translocation
- IC50 ([3]; KU-19-19, 72 h): 55 ± 5.1 µM
- IC50 ([4]; MDA-MB-453, 72 h): 1 ± 0.16 µM
- IC50 ([5]; NCI-H1650, 72 h): > 33.3 µM

SMILES: CC(=O)Nc1cccc(-n2c(=O)n(C3CC3)c(=O)c3c(Nc4ccc(I)cc4F)n(C)c(=O)c(C)c32)c1 [trametinib, reference compound]
- TGI [6]: 26%

- plasma membrane translocation of AKT1-E17K [1]: only weakly inhibited
- plasma membrane translocation of AKT1-WT [2]: inhibited
- IC50 ([4]; MDA-MB-453, MTS, 72 hours, mean ± standard deviation): 0.26 ± 0.02 µM
- IC50 ([5]; NCI-H1650, MTS, 72 hours, mean ± standard deviation): 15.2 ± 3.01 µM
SMILES: NC1(c2ccc(-c3nc4ccn5c(=O)[nH]nc5c4cc3-c3ccccc3)cc2)CCC1 [MK-2206, reference compound]
- IC50 ([3]; KU-19-19, MTS, 72 hours, mean ± standard deviation): 21.5 ± 5.3 µM

SMILES: CC(=O)O[C@H]1C(=O)[C@@]2(C)[C@H]([C@H](OC(=O)c3ccccc3)[C@]3(O)C[C@H](OC(=O)[C@H](O)[C@@H](NC(=O)c4ccccc4)c4ccccc4)C(C)=C1C3(C)C)[C@]1(OC(C)=O)CO[C@@H]1C[C@@H]2O [paclitaxel, reference compound]
- tumor growth inhibition [7]: 41%
